Experimental data published in patent US5807869A, “Quinoline derivatives, their production and use” (Takeda Chemical Industries, Ltd., priority 1995, dated 1998).
Counter-ions that a name gives are not always drawn.

Molecular target: T1, human GnRH receptor (Homo sapiens, UniProt P30968)
T1 construct: expressed in transfected cells; host or cells: CHO (Chinese Hamster Ovary) cells
T1 sequence (P30968 1-328): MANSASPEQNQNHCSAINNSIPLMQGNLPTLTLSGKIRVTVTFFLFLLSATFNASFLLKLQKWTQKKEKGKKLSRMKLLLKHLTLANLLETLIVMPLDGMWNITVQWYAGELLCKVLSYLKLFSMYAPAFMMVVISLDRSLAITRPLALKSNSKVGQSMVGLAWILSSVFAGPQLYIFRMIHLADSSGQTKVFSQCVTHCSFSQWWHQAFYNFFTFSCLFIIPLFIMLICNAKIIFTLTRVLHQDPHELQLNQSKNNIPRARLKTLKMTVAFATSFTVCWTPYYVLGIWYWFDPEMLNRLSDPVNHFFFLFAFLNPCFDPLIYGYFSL
Assay: 125I-leuprorelin binding inhibition, membrane fraction of CHO cells expressing human GnRH receptors
Settings: CHO cell membrane fraction, 25° C., 60 minutes, Hill plot, read-out: 125I-leuprorelin binding inhibitory rate IC50 value

Compound: CCOC(=O)c1cn(Cc2c(F)cccc2F)c2cc(-c3ccc(NC(=O)CC)cc3)c(CN(C)Cc3ccccc3)cc2c1=O [Example 3, 6-(N-benzyl-N-methylaminomethyl)-1,4-dihydro-1-(2,6-difluorobenzyl)-7-(4-propionylaminophenyl)-4-oxoquinoline-3-carboxylic acid ethyl ester hydrochloride]
- IC50: 50 nM
